Measurements reported in US8178727B2, “Bis(arylmethylidene)acetone compound, anti-cancer agent, carcinogenesis-preventive agent, inhibitor of expression of Ki-Ras, ErbB2, c-Myc and Cycline D1, β-catenin-degrading agent, and p53 expression enhancer” (National University Corporation Tohoku University, priority 2005, dated 2012).

How the values were obtained:
colon-cancer cells = experiment: Growth inhibition compared with anti-cancer agents 5-FU, CPT11, CDDP (FIG. 6); assay type: cell-based, human
Protocol: (§1) The inhibitory efficacy of bis(arylmethylidene)-acetones on the development and growth of malignant tumor cells was examined. Curcumin and bis(arylmethylidene)-acetone compounds were dissolved in DMSO to obtain 50 mM compound solutions for storage. Sixteen human cancer cell lines (HCT116, DLD-1, SW620. LK87, PC3, MCF7, PK9, HuCCT-1, SH10TC, GCIY, G361, 8505c, HepG2, A431, ACHN, OVK18) were obtained from the Medical Cellular Resources Center of the Institute of Development, Aging, and Cancer at Tohoku University, Japan. These cells were cultured at 37° C. under 5% CO2 conditions using as a culture medium RPMI1640 (Sigma Aldrich) supplemented with 10% fetal bovine serum and kanamycin (Wako Pure Chemical Industries: final concentration, […]).
(§2) Each cell line was placed on a 96-well microtiter plate at a cell density of 2500 to 5000 cells/100 μL/well in accordance with the growth rate of the cell line. After cell cultivation for 24 hours, […] medium containing each compound was added. The final concentration of each test compound is 0, 0.1, 0.25, 0.5, 1, 2.5, 5, 10, 25, 50, and 100 μM (11 levels). The maximum final concentration of DMSO used as a solvent was 1%. After culturing for 96 hours, the medium was aspirated away, followed by washing with PBS. Next, 100 μL of a medium containing a solution of Cell Counting Kit 8 at 1/10 (v/v) was added. Culturing was then continued for one hour. Thereafter, each optical absorbance at 450 nm (620 nm background) was measured with an MPR-A4i microplate reader (Tosoh, Japan). A curve of the inhibition of cell growth was constructed using the measured optical absorbances.
Stored solutions of three anti-cancer agents: 5-FU, CDDP, and CPT11, prepared beforehand (1 mM), were suitably diluted prior to use, and also added to culture media.

SW620 cells = experiment: Cell growth inhibition (Cell Counting Kit 8, Wst-8), 96 h exposure; assay type: cell-based; conditions: Homo sapiens, SW-620, SW620 colon cancer cells
Protocol: as §1
(§3) Three human colon-cancer cell lines (DLD-1, HCT116, SW620) were used in screening for cell growth inhibitory efficacy. The test compounds (bis(arylmethylidene)-acetones) were added to the culture media at the target concentrations, and exposure to the compounds was then continued for 96 hours in order to investigate not only acute cell damages but also effects on the cells, involving intracellular metabolic responses and others. The cell growth inhibitory efficacy was then evaluated with Cell Counting Kit 8 (Wst-8 Test, Dojindo Laboratories, Japan). In this analysis method, tetrazolium salt Wst-8 is degraded by reduced form nicotinamide adenine dinucleotide (nicotinamide adenine dinucleotide H; NADH). The activity of NADH is maintained only inside viable cells, and Wst-8 becomes colored upon degradation. The optical absorbance at 450 nm is measured, whereby the number of viable cells can be indirectly estimated.
as §2

HCT116 cells = experiment: as above; assay type: cell-based; conditions: Homo sapiens, HCT-116, HCT116 colon cancer cells
Protocol: as §1, §3, §2

DLD-1 cells [1] = experiment: as above; assay type: cell-based; conditions: Homo sapiens, DLD-1 colon cancer cells
Protocol: as §1, §3, §2

[2] = test system: melanoma and breast cancer cells; conditions: Non-Patent Document 2; cited from earlier work
DLD-1 cells [3] = experiment: Cell cycle / apoptosis-inducing activity by flow cytometry (FACScan); assay type: cell-based, human
Protocol: The activity of test compounds in cell cycle (apoptosis-inducing activity) was analyzed with a flow cytometer (FACScan). […] The cells attached to the plates are then harvested together with the cells suspended in the medium, centrifuged, and pelleted, followed by removal of supernatants. The collected cells were washed twice with PBS, then fixed with 70% ethanol for 30 minutes or more at 4° C., then washed with PBS once more, suspended in PBS supplemented with RNaseA (final concentration: 50 μg/mL; Qiagen), and incubated for 20 minutes at 37° C. Centrifugation was performed, and the supernatant was removed, after which the nuclei were stained using a solution of propidium iodide ([…]). Filtration was then performed using a nylon mesh having a pore size of 50 μm, and a DNA histogram was analyzed with a FACScan flow cytometer ([…]). The cellular fractions of subG1 phase, G0/G1 phase, S phase, and G2/M phase were determined by calculation using macCycle (Phoenix Flow Systems).

β-catenin [4] = experiment: Western blot of β-catenin degrading activity; assay type: cell-based, human
Protocol: Western-blot analysis was used to investigate effects on the expression of oncogene products, ErbB2, c-Myc, and Cyclin D1, whose activity is enhanced in a variety of cancer cells, and to investigate the activity of degrading β-catenin, which plays an important role in the initial stages of carcinogenesis to the formation and development of tumors.
(§4) Western-blot analysis was performed in the following manner:
(§5) After HCT116 cells were treated with each test compound, plate-adhered cells were recovered along with cells suspended in supernatants, centrifuged, and pelleted. The cells were then lysed with a lysis solution (40 mM Tris-HCl, 1% Triton X-100, 2 mM MgCl2) supplemented with 200-μM phenylmethanesulfonyl fluoride (PMSF), 500-μM benzamidine, and 1-μg/mL leupeptin. After the mixture was allowed to stand on ice for 30 minutes, it was centrifuged for 10 minutes at 4° C. and 10000×g, and supernatants were recovered. To the resultant supernatant was added equimolarly 2× sample buffer (0.1 M Tris-HCl (pH 6.8), 4% SDS, 20% glycerol, and 12% β-mercaptoethanol), and the mixture was shaken for 3 minutes at 4° C., then heated to 95° C. for 4 minutes, and then stored at −20° C. until use. The cell lysates were phoresed on 8% SDS-PAGE, transferred to a Hybond-P membrane (Amersham Biosciences), and made to react with various monoclonal antibodies described below.
(§6) Monoclonal antibodies: anti-actin antibody (A2066, Sigma Aldrich), anti-β-catenin antibody (6101 53, BD-transduction Laboratories), anti-p53 antibody (FL393: sc-6243HRP), anti-cyclin D1 antibody (M-20: sc-718), anti-c-Myc antibody (9E10: sc-40), anti-k-Ras-2B antibody (C-19: sc-521), and anti-c-ErbB2 antibody (A0485, DAKO Cytomation).

p53 = experiment: Western blot of p53 gene product expression; assay type: cell-based, human; conditions: FIG. 11
Protocol: as §4, §5, §6
Curcumin is known to have activity in degrading p53 gene products. Degradation, genetic expression reduction, instability, or other deficiencies of the tumor suppressor gene p53 gene products, result in disadvantageous conditions as concerns cell malignancy and tendency to become cancerous.

colon cancer cells = conditions: Non-Patent Document 1; cited from earlier work
[5] = cited from earlier work
β-catenin [6] = conditions: Non-Patent Document 1; cited from earlier work

IC50 (SW620 cells) | IC50 (HCT116 cells) | IC50 (DLD-1 cells [1]) | SMILES | growth inhibitory activity relative to 5-FU, CPT11 and CDDP (colon-cancer cells) | efficacy relative to curcumin [2] | concentration arresting the cell cycle at the G2/M phase (DLD-1 cells [3]; DLD-1 cells, flow cytometry) | concentration at which β-catenin degrading activity is displayed (β-catenin [4]; FIG. 9) | concentration at which β-catenin degrading activity is displayed (β-catenin [4]; FIG. 9, listed as BDMPP) | transient drop in expression of p53 6 to 12 hours after administration (p53) | concentration inhibiting the growth of colon cancer cells (colon cancer cells) | water-solubility [5] | sub-G1 fraction (apoptosis-induced cell death) (DLD-1 cells [3]; curcumin (20 μM in method)) | concentration degrading β-catenin (β-catenin [6])
3.5 µM | 2.5 µM | 2 µM | COc1ccc(C=CC(=O)C=Cc2ccc(OC)c(OC)c2)cc1OC [GO-035, 1,5-Bis(3,4-dimethoxyphenyl)-penta-1,4-dien-3-one, reference compound] | much stronger | 1.3 to 2.1 times | 5 µM | 5.0 µM | 5 µM |  |  |  |  | 
10 µM | 8 µM | 8 µM | COc1cc(/C=C/C(=O)CC(=O)/C=C/c2ccc(O)c(OC)c2)ccc1O [curcumin, (1E,6E)-1,7-bis(4-hydroxy-3-methoxyphenyl)-1,6-heptadiene-3,5-dione, reference compound] |  |  |  | 20.0 µM |  | transient drop | 20 µM | poor | not substantially observed | 15 µM
